Experimental data: patent US20050171211A1, “Gingerol analogues and use thereof” (priority 2002, published 2005)
Like-named read-outs stand apart in the source and are kept apart here.

How the values were obtained:
[1] = Test about suppression of lipid peroxide generation in linoleic acid
Description: Using the compound of the formula (11) as obtained in Example 1 and the compound of the formula (12) as obtained in Example 2, a test about the suppression of lipid peroxide generation in linoleic acid was done. Along with the compounds, dl-α-tocopherol (manufactured by Tokyo Kasei Kogyo Co., Ltd.) was tested similarly, to obtain control data.
The test procedures are as follows. As a test result, the ratio of residual linoleic acid by the following procedure (3) is described in Table 1.
(1) After ethanol (2.0 g ) was added to linoleic acid (0.2 g; manufactured by Tokyo Kasei Kogyo Co., Ltd.), a test compound (0.01 g) and a surface active agent Nissan OT-221 (0.4 g; manufactured by NOF Corporation) placed in a 50-ml screw vial, for dissolution, distilled water (17.39 g) was added to the resulting solution for agitation, and was then sealed and left to stand alone in a thermostat at 40° C. Such sample was prepared in a duplex manner.
A blank test with no test compound added was similarly done.
(2) The amount of remaining linoleic acid one week, 2 weeks, 3 weeks and 4 weeks after the start of the test was assayed by HPLC.
The HPLC analytical conditions were as follows. Wavelength for detection: 210 nm. Mobile phase: a mixture solution of a disodium hydrogen phosphate-phosphate buffer adjusted to pH 2.5 and methanol (10:90). Flow: 1 ml/min. Column: ODS-8OTs (4.6 Φmm×150 mm). Column temperature at 40° C.
(3) Each sample was assayed by HPLC two times. The ratio of remaining linoleic acid was calculated on the basis of the mean of four assay values.

[2] = Test about scavenging DPPH radical; details: final concentration 10 μg/mL; for Ratio of scavenging DPPH radical: 20 minutes, darkness, ambient temperature, absorbance at 517 nm
Description: Concerning radical-scavenging activity, a stable radical DPPH (1,1-diphenyl-2-picrylhydrazyl) was used for assaying the radical-scavenging activities of test compounds [the compound of the formula (11) and the compound of the formula (12) and a control sample dl-α-tocopherol (manufactured by Tokyo Kasei Kogyo Co., Ltd.)]. The assay method is as follows. Tris below is an acronym of tris(hydroxymethyl)aminomethane and M represents the concentration unit Mol/L.
1 ml of 200 μM DPPH solution in ethanol was added to 800 μl of 100 mM Tris-HCl buffer, pH 7.4 and 200 μl of a test compound solution in ethanol (to a final concentration of 10 μg/mL), for sufficient agitation. After the resulting mixture was left to stand alone in darkness at ambient temperature for 20 minutes, the absorbance at 517 nm was measured (absorbance of the test solutions).
Meanwhile, 800 μl of 100 mM Tris-HCl buffer, pH 7.4, 200 μl of ethanol and 1 ml of 200 μM DPPH solution in ethanol were used for the same procedures as described above to measure the absorbance to obtain the absorbance of the blank.
The individual test compounds and the blank were repeatedly treated by the same procedures three times, and the mean of the resulting absorbance values was inserted in the following formula, to calculate the ratio of scavenging DPPH radical. Ratio of scavenging DPPH radical (%)={1-(absorbance of sample solution/absorbance of blank solution)}×100

[3] = test system: mushroom tyrosinase; assay: Test about the inhibition of tyrosinase activity using L-dopa as substrate; format: biochemical; details: 0.27 or 0.54 μmol in 3 ml enzyme reaction solution, 25° C.
Description: Using the compound of the formula (11) obtained in Example 1, a test about the inhibition of tyrosinase activity using L-dopa as substrate was done. The same test was done about arbutin (manufactured by Tokyo Kasei Kogyo Co., Ltd.), to get control data. The test procedures are as follows. […]
(2) 0.10 ml of an enzyme solution prepared by dissolving 3.0 mg (2400 units; manufactured by Sigma Corporation) of mushroom tyrosinase in 7.0 ml of distilled water was added to the solution prepared in (1), for agitation for 15 seconds. The resulting solution was retained at 25° C., to measure the absorbance at 475 nm one minute-45 seconds later and 2 minute- 45 seconds later.
(3) The test procedures above in (1) and (2) were conducted three times for the individual test compounds and blank test (only dimethylsulfoxide), and the resulting mean was inserted in the following calculation formula to determine the ratio (%) of the inhibition of tyrosinase activity. Ratio of inhibition of tyrosinase activity (%)=[(T^1-T^2)/T^1]×100 T^1=difference in absorbance of blank solution between 2 minute-45 seconds later and one minute-45 seconds later T^2=difference in absorbance of solution with addition of test compound between 2 minute-45 seconds later and one minute-45 seconds later

SMILES: CCCCCC(CC(=O)CCc1ccc(O)c(OC)c1)OC (stereo not drawn) [Compound of formula (11)]
- ratio of remaining linoleic acid [1]: 90.5%
- ability of scavenging radical compared with dl-α-tocopherol [2]: higher levels than that of dl-α-tocopherol
- Ratio of scavenging DPPH radical [2]: 35.1%
- inhibition of tyrosinase activity compared with arbutin (FIG. 1) [3]: superior to that of arbutin

SMILES: CCCCCC(CC(O)CCc1ccc(O)c(OC)c1)OC (stereo not drawn) [Compound of formula (12)]
- ratio of remaining linoleic acid [1]: 89.2%
- ability of scavenging radical compared with dl-α-tocopherol [2]: higher levels than that of dl-α-tocopherol
- Ratio of scavenging DPPH radical [2]: 40.0%

SMILES: Cc1c(C)c2c(c(C)c1O)CCC(C)(CCCC(C)CCCC(C)CCCC(C)C)O2 (racemic) [Tocopherol, dl-α-tocopherol]
- ratio of remaining linoleic acid ([1]; 2 weeks later, 40° C., 0.01 g test compound, 0.2 g linoleic acid, HPLC): 73.2%
- ratio of remaining linoleic acid ([1]; 3 weeks later, 40° C., 0.01 g test compound, 0.2 g linoleic acid, HPLC): 62.6%
- ratio of remaining linoleic acid ([1]; 4 weeks later, 40° C., 0.01 g test compound, 0.2 g linoleic acid, HPLC): 57.3%
- ratio of remaining linoleic acid ([1]; one week later, 40° C., 0.01 g test compound, 0.2 g linoleic acid, HPLC): 83.6%
- Ratio of scavenging DPPH radical [2]: 26.7%
